According to US20140274785A1, “BIOMARKERS” (priority 2013, published 2014):
“Also recorded” adds a separate entry of the source.

Assays:
SOD1-G93A TGN mice = assay: Onset of symptoms (stride length/gait analysis) and death in SOD1-G93A TGN mice, treatment started presymptomatic (7 weeks); format: in vivo, mouse; conditions: for Onset of motor deficits: vehicle 20% cyclodextran 88-100 days; for Mortality: vehicle 20% cyclodextran 105-112 days
Experimental: The one and two-drug treatments were started at an early (i.e., presymptomatic) stage of disease (7 weeks). SOD1-G93A TGN mice were treated 3 times a week with noscapine (0.2 mg/kg body weight) and/or MK-801 (12 mg/kg body weight/day). Mice received noscapine intraperitoneally and MK-801 in drinking water.
Female SOD-1 G93A TGN mice were obtained from Jackson laboratory (strain #2726). The controls were matched litter mates. Treatment groups were three per group. Noscapine was injected intraperitoneal in the thigh 3 times/week (0.2 mg/kg i.p.) and MK801 was administered continuously in drinking water (12 mg/kg/d). Gait analysis was done by the method of Wooley et al., Muscle Nerve 2005 32(1):43-50 and Carter et al. J. Neurosci., 19(8):3248-3257, hereby incorporated by reference in their entirety.
For clinical assessment endpoints scoring was selected as follows:
Clinical signs: Full mobility and no observable difference in behavior from age-matched controls (Gait or stride length analysis).
Clinical signs: Abnormal Gait or stride length analysis and hindlimb weakness: >40% reduction in stride length vs. age-matched littermates.
Clinical signs: noticeable and complete hind limb paralysis (which in this strain occurs more on one limb than the other) and inability to right themselves in 5 sec time window. This stage starts usually as the mice are failing the gait analysis test and enter the End stage. Therefore, Transgenic SOD1-G93A TGN mice are euthanized at the onset of noticeable and complete hindlimb paralysis and inability to right themselves in 5 sec time window.

[1] = test system: fast axonal transport of 2H-labeled cargo proteins; assay: MT-mediated fast axonal transport: CSF secretion kinetics and spinal cord retention of 2H-labeled cargo proteins in symptomatic SOD1G93A mice; format: in vivo, mouse
hyperdynamic MTs = assay: Microtubule turnover in MPTP-injected PD mouse model; format: in vivo; conditions: treatment from 7 days after last MPTP injection for 10 days; n=4
Experimental: FIGS. 28A-28B show an illustration of altered microtubule (MT) turnover in two preclinical models of Parkinson's disease (PD). (A) The acute MPTP intoxication PD model (8 wk old C57b1/6 mice were injected four times with 20 mg/kg on 1 day, at 2 h interval) show hyperdynamic tau-associated and cold-stable (CS) MTs in striatum and substantia nigra at 3 and 7 days after the last (fourth) MPTP injection (n=4 per group, males aged 8 weeks, mean±SD; *P<0.001). (B) In vivo MT dynamics was measured in substantia nigra and striatum at presymptomatic (4 and 10 months) and symptomatic (15 months) disease stage in transgenic alpha-synucleinA53T PD mice (−/−/SNCAA53T). […]
FIGS. 29A-29C show normalized microtubule (MT) turnover correlate with reverse of symptoms in the MPTP-injected PD mouse model after treatment with the MTMA noscapine. […] Neuromuscular strength was measured using the grip strength test (B) and the grid hang test (C). Grip strength test measured the tension peak of pull (gram of force) by the forepaws and it was performed 1 day before (day 0), 1, 2, 3, 4, 5, 7 and 17 days after the last (fourth) MPTP injection (n=10, males per each time point). The hang test was performed 17 days after the last (fourth) MPTP-injection and percentage of success was recorded as maximum time hanging/300 sec×100 (n=10, males per each time point).

MPTP-injected mice = assay: Neuromuscular strength (grip strength test, grid hang test) in MPTP-injected mice; format: in vivo, mouse; conditions: treatment from 7 days after last MPTP injection for 10 days; n=10
Experimental: Noscapine was administered at 7 days after the last MPTP-injection, treatment was for 10 days and a pulse of ^2H2O labeling was administered the last day of treatment (17 days after, fourth, MPTP injection). […] Neuromuscular strength was measured using the grip strength test (B) and the grid hang test (C). […] The hang test was performed 17 days after the last (fourth) MPTP-injection and percentage of success was recorded as maximum time hanging/300 sec×100 (n=10, males per each time point).

[2] = test system: transport of neuronal cargo proteins; assay: CSF secretion kinetics of 2H-labeled cargo proteins in symptomatic PD MPTP-injected mice; format: in vivo, mouse
Experimental: Noscapine was administered 7 days after the last MPTP injection, treatment was for 10 days, and a pulse of ^2H2O labeling was administered on the last day of treatment (17 days after the fourth and final MPTP injection

| Compound | Onset of motor deficits (SOD1-G93A TGN mice) | Mortality (SOD1-G93A TGN mice) | MT-mediated fast axonal transport rates of 2H-label neuregulin-1 and chromogranin-B containing synaptic vesicles ([1]; 3 weeks treatment, 100 mg/kg/d and 200 mg/kg/d, 13 weeks mice) | kinetic of 2H-alpha synuclein in CSF ([1]; symptomatic ALS SOD1G93A) | transport rates of 2H-Chr-B, 2H-NeuR-1 and 2H-sAPP in CSF ([1]; symptomatic ALS SOD1G93A, vs age-matched wild type, n=10 per time point) | hyperdynamic MTs (hyperdynamic MTs) | symptoms (grip strength test, grid hang test) (MPTP-injected mice) | kinetics of 2H-NeuR-1 in CSF ([2]; symptomatic PD MPTP-injected mice) | kinetics of secretion of 2H-Chr-B, 2H-sAPP in CSF ([2]; treatment from 7 days after last MPTP injection for 10 days, n=10 per time point) |
| --- | --- | --- | --- | --- | --- | --- | --- | --- | --- |
| C[C@]12N[C@H](Cc3ccccc31)c1ccccc12 [MK-801, Dizocilipine] | 105 to 112 days | 112 to 119 days |  |  |  |  |  |  |  |
| COc1ccc2c(c1OC)C(=O)O[C@@H]2[C@H]1c2c(cc3c(c2OC)OCO3)CCN1C [Noscapine, noscapine] | 98 to 105 days | 112 to 119 days | normalized; also recorded: improves this delayed fast axonal transport | not adversely affected | normalized transport rates | reduced hyperdynamic MTs | reverses symptoms | not adversely affected | normalized the kinetics of secretion |
